US10966978B2, “Dose and regimen for HDM2-p53 interaction inhibitors” (Novartis AG, priority 2016, dated 2021)
Where two headings read alike, the source gives them in different places.

Tested on: patients with advanced TP53 wild-type (WT) leukemias
From the text: Patients with Ph+ ALL who show early markers of relapse in MRD surveillance can be considered for inclusion as long as other therapies such as TKIs are exhausted or cannot be given. • Tumor of the patient is TP53 wt characterized by, at a minimum, no mutations in exons 5, 6, 7 and 8, and the p53 status was obtained from a bone-marrow sample, collected no longer than 3 months before signing the main ICF. Safety and Tolerability Profile of Regimen 1B in Hematological Tumors

## COc1ncc(-c2nc3c(n2C(C)C)[C@H](c2ccc(Cl)cc2)N(c2cc(Cl)cn(C)c2=O)C3=O)c(OC)n1 [HDM201, (S)-5-(5-Chloro-1-methyl-2-oxo-1,2-dihydro-pyridin-3-yl)-6-(4-chloro-phenyl)-2-(2,4-dimethoxy-pyrimidin-5-yl)-1-isopropyl-5,6-dihydro-1H-pyrrolo[3,4-d]imidazol-4-one]
Regimen 1A N = 16, All Grades
  AE: Fatigue: 4 (25.0) n (%)
  AE: Febrile Neutropenia: 4 (25.0) n (%)
  AE: Gamma-Glutamyltransferase Increased: 2 (12.5) n (%)
  AE: General Physical Health Deterioration: 2 (12.5) n (%)
  AE: Gingival Bleeding: 2 (12.5) n (%)
  AE: Graft Versus Host Disease: 1 (6.3) n (%)
  AE: Haemoglobin Decreased: 1 (6.3) n (%)
  AE: Headache: 1 (6.3) n (%)
  AE: Hyperbilirubinaemia: 1 (6.3) n (%)
  AE: Hyperglycaemia: 1 (6.3) n (%)
  AE: Hyperkalaemia: 0 n (%)
  AE: Hyperphosphataemia: 1 (6.3) n (%)
  AE: Hyperuricaemia: 2 (12.5) n (%)
  AE: Hypoalbuminaemia: 1 (6.3) n (%)
  AE: Hypocalcaemia: 2 (12.5) n (%)
  AE: Hypokalaemia: 0 n (%)
  AE: Hypomagnesaemia: 1 (6.3) n (%)
  AE: Hyponatraemia: 1 (6.3) n (%)
  AE: Hypophosphataemia: 2 (12.5) n (%)
  AE: Hypotension: 1 (6.3) n (%)
  AE: Infection: 1 (6.3) n (%)
  AE: Infective Glossitis: 0 n (%)
  AE: Iron Overload: 1 (6.3) n (%)
  AE: Leukopenia: 2 (12.5) n (%)
  AE: Lip Oedema: 1 (6.3) n (%)
  AE: Lipase Increased: 3 (18.8) n (%)
  AE: Macular Oedema: 0 n (%)
  AE: Malaise: 1 (6.3) n (%)
  AE: Mouth Haemorrhage: 2 (12.5) n (%)
  AE: Nausea: 10 (62.5) n (%)
  AE: Neutropenia/Neutrophil Count Decreased: 6 (37.5) n (%)
  AE: Oedema: 1 (6.3) n (%)
  AE: Oral Disorder: 1 (6.3) n (%)
  AE: Pain In Extremity: 1 (6.3) n (%)
  AE: Pancytopenia: 0 n (%)
  AE: Pneumonia: 1 (6.3) n (%)
  AE: Pollakiuria: 1 (6.3) n (%)
  AE: Pyrexia: 3 (18.8) n (%)
  AE: Rash: 1 (6.3) n (%)
  AE: Rash Erythematous: 1 (6.3) n (%)
  AE: Rash Papular: 1 (6.3) n (%)
  AE: Rectal Haemorrhage: 0 n (%)
  AE: Renal Failure: 0 n (%)
  AE: Skin Exfoliation: 1 (6.3) n (%)
  AE: Stomatitis: 1 (6.3) n (%)
  AE: Subarachnoid Haemorrhage: 1 (6.3) n (%)
  AE: Thrombocytopenia/Platelet Count Decreased: 8 (50.0) n (%)
  AE: Total: 15 (93.8) n (%)
  AE: Tumour Lysis Syndrome: 7 (43.8) n (%)
  AE: Vomiting: 5 (31.3) n (%)
  AE: Weight Decreased: 1 (6.3) n (%)
  AE: White Blood Cell Count Decreased: 1 (6.3) n (%)
Regimen 1A N = 16, Grade 3/4
  AE: Abdominal Discomfort: 0 n (%)
  AE: Abdominal Pain: 0 n (%)
  AE: Abdominal Pain Upper: 0 n (%)
  AE: Acute Kidney Injury: 0 n (%)
  AE: Amylase Increased: 0 n (%)
  AE: Anaemia: 4 (25.0) n (%)
  AE: Arthralgia: 0 n (%)
  AE: Asthenia: 0 n (%)
  AE: Atrial Fibrillation: 0 n (%)
  AE: Atypical Pneumonia: 0 n (%)
  AE: Balanitis Candida: 0 n (%)
  AE: Blood Alkaline Phosphatase Increased: 0 n (%)
  AE: Blood Bilirubin Increased: 0 n (%)
  AE: Blood Creatinine Increased: 0 n (%)
  AE: Blood Phosphorus Increased: 0 n (%)
  AE: Blood Uric Acid Increased: 1 (6.3) n (%)
  AE: Bone Marrow Failure: 0 n (%)
  AE: C-Reactive Protein Increased: 0 n (%)
  AE: Cardiac Failure: 0 n (%)
  AE: Cellulitis: 0 n (%)
  AE: Chronic Graft Versus Host Disease: 1 (6.3) n (%)
  AE: Conjunctival Haemorrhage: 0 n (%)
  AE: Constipation: 0 n (%)
  AE: Cough: 0 n (%)
  AE: Cystitis Viral: 0 n (%)
  AE: Cytomegalovirus Infection: 0 n (%)
  AE: Decreased Appetite: 0 n (%)
  AE: Diarrhoea: 0 n (%)
  AE: Dyspepsia: 0 n (%)
  AE: Dyspnoea: 1 (6.3) n (%)
  AE: Epistaxis: 0 n (%)
  AE: Fatigue: 0 n (%)
  AE: Febrile Neutropenia: 4 (25.0) n (%)
  AE: Gamma-Glutamyltransferase Increased: 1 (6.3) n (%)
  AE: General Physical Health Deterioration: 0 n (%)
  AE: Gingival Bleeding: 0 n (%)
  AE: Graft Versus Host Disease: 0 n (%)
  AE: Haemoglobin Decreased: 0 n (%)
  AE: Headache: 0 n (%)
  AE: Hyperbilirubinaemia: 0 n (%)
  AE: Hyperglycaemia: 0 n (%)
  AE: Hyperkalaemia: 0 n (%)
  AE: Hyperphosphataemia: 0 n (%)
  AE: Hyperuricaemia: 1 (6.3) n (%)
  AE: Hypoalbuminaemia: 0 n (%)
  AE: Hypocalcaemia: 0 n (%)
  AE: Hypokalaemia: 0 n (%)
  AE: Hypomagnesaemia: 0 n (%)
  AE: Hyponatraemia: 0 n (%)
  AE: Hypophosphataemia: 2 (12.5) n (%)
  AE: Hypotension: 0 n (%)
  AE: Infection: 1 (6.3) n (%)
  AE: Infective Glossitis: 0 n (%)
  AE: Iron Overload: 0 n (%)
  AE: Leukopenia: 2 (12.5) n (%)
  AE: Lip Oedema: 0 n (%)
  AE: Lipase Increased: 2 (12.5) n (%)
  AE: Macular Oedema: 0 n (%)
  AE: Malaise: 0 n (%)
  AE: Mouth Haemorrhage: 0 n (%)
  AE: Nausea: 0 n (%)
  AE: Neutropenia/Neutrophil Count Decreased: 6 (37.5) n (%)
  AE: Oedema: 0 n (%)
  AE: Oral Disorder: 0 n (%)
  AE: Pain In Extremity: 0 n (%)
  AE: Pancytopenia: 0 n (%)
  AE: Pneumonia: 0 n (%)
  AE: Pollakiuria: 0 n (%)
  AE: Pyrexia: 0 n (%)
  AE: Rash: 0 n (%)
  AE: Rash Erythematous: 0 n (%)
  AE: Rash Papular: 0 n (%)
  AE: Rectal Haemorrhage: 0 n (%)
  AE: Renal Failure: 0 n (%)
  AE: Skin Exfoliation: 0 n (%)
  AE: Stomatitis: 1 (6.3) n (%)
  AE: Subarachnoid Haemorrhage: 1 (6.3) n (%)
  AE: Thrombocytopenia/Platelet Count Decreased: 8 (50.0) n (%)
  AE: Total: 12 (75.0) n (%)
  AE: Tumour Lysis Syndrome: 7 (43.8) n (%)
  AE: Vomiting: 0 n (%)
  AE: Weight Decreased: 0 n (%)
  AE: White Blood Cell Count Decreased: 0 n (%)
Regimen 1B N = 6, All Grades
  AE: Abdominal Discomfort: 0 n (%)
  AE: Abdominal Pain: 0 n (%)
  AE: Abdominal Pain Upper: 0 n (%)
  AE: Acute Kidney Injury: 1 (16.7) n (%)
  AE: Amylase Increased: 0 n (%)
  AE: Anaemia: 2 (33.3) n (%)
  AE: Arthralgia: 0 n (%)
  AE: Asthenia: 1 (16.7) n (%)
  AE: Atrial Fibrillation: 0 n (%)
  AE: Atypical Pneumonia: 0 n (%)
  AE: Balanitis Candida: 0 n (%)
  AE: Blood Alkaline Phosphatase Increased: 0 n (%)
  AE: Blood Bilirubin Increased: 1 (16.7) n (%)
  AE: Blood Creatinine Increased: 0 n (%)
  AE: Blood Phosphorus Increased: 1 (16.7) n (%)
  AE: Blood Uric Acid Increased: 0 n (%)
  AE: Bone Marrow Failure: 0 n (%)
  AE: C-Reactive Protein Increased: 0 n (%)
  AE: Cardiac Failure: 0 n (%)
  AE: Cellulitis: 1 (16.7) n (%)
  AE: Chronic Graft Versus Host Disease: 0 n (%)
  AE: Conjunctival Haemorrhage: 0 n (%)
  AE: Constipation: 1 (16.7) n (%)
  AE: Cough: 0 n (%)
  AE: Cystitis Viral: 0 n (%)
  AE: Cytomegalovirus Infection: 0 n (%)
  AE: Decreased Appetite: 1 (16.7) n (%)
  AE: Diarrhoea: 0 n (%)
  AE: Dyspepsia: 0 n (%)
  AE: Dyspnoea: 0 n (%)
  AE: Epistaxis: 0 n (%)
  AE: Fatigue: 0 n (%)
  AE: Febrile Neutropenia: 2 (33.3) n (%)
  AE: Gamma-Glutamyltransferase Increased: 0 n (%)
  AE: General Physical Health Deterioration: 0 n (%)
  AE: Gingival Bleeding: 0 n (%)
  AE: Graft Versus Host Disease: 0 n (%)
  AE: Haemoglobin Decreased: 0 n (%)
  AE: Headache: 1 (16.7) n (%)
  AE: Hyperbilirubinaemia: 1 (16.7) n (%)
  AE: Hyperglycaemia: 0 n (%)
  AE: Hyperkalaemia: 1 (16.7) n (%)
  AE: Hyperphosphataemia: 1 (16.7) n (%)
  AE: Hyperuricaemia: 2 (33.3) n (%)
  AE: Hypoalbuminaemia: 0 n (%)
  AE: Hypocalcaemia: 0 n (%)
  AE: Hypokalaemia: 1 (16.7) n (%)
  AE: Hypomagnesaemia: 0 n (%)
  AE: Hyponatraemia: 1 (16.7) n (%)
  AE: Hypophosphataemia: 0 n (%)
  AE: Hypotension: 0 n (%)
  AE: Infection: 0 n (%)
  AE: Infective Glossitis: 0 n (%)
  AE: Iron Overload: 0 n (%)
  AE: Leukopenia: 0 n (%)
  AE: Lip Oedema: 0 n (%)
  AE: Lipase Increased: 0 n (%)
  AE: Macular Oedema: 1 (16.7) n (%)
  AE: Malaise: 0 n (%)
  AE: Mouth Haemorrhage: 0 n (%)
  AE: Nausea: 4 (66.7) n (%)
  AE: Neutropenia/Neutrophil Count Decreased: 1 (16.7) n (%)
  AE: Oedema: 0 n (%)
  AE: Oedema Peripheral: 1 (16.7) n (%)
  AE: Oral Disorder: 0 n (%)
  AE: Pain In Extremity: 0 n (%)
  AE: Pancytopenia: 1 (16.7) n (%)
  AE: Pneumonia: 0 n (%)
  AE: Pollakiuria: 0 n (%)
  AE: Pyrexia: 0 n (%)
  AE: Rash: 0 n (%)
  AE: Rash Erythematous: 0 n (%)
  AE: Rash Papular: 0 n (%)
  AE: Rectal Haemorrhage: 1 (16.7) n (%)
  AE: Renal Failure: 0 n (%)
  AE: Skin Exfoliation: 0 n (%)
